Source: patent publication US20190100549A1, “FLAVONOIDE-TYPE COMPOUNDS BEARING AN O-RHAMNOSYL RESIDUE” (Universitaet Hamburg, priority 2016, published 2019)
Values joined by “and” are separate entries in the source; they are usually repeats but may differ in a detail not shown here. Equal entries are not always repeated.

Legend:
[1] = tested on: VEGF; experiment: VEGF release in NHDF (ELISA); assay type: cell-based, human; conditions: 100 μM, 72 hours
Experimental: (§1) Tests were performed with normal human dermal fibroblast cultures at the 8th passage. Cells were grown in DMEM supplemented with glutamine at 2 mM, penicillin at 50 U/mL and streptomycin (50 μg/mL) and 10% of fetal calf serum (FCS) at 37° C. in a 5% CO2 atmosphere.
(§2) Fibroblasts were cultured for 24 hours before the cells were incubated with the test compounds for further 72 hours. After the incubation the culture supernatants were collected in order to measure the released quantities of procollagen I, VEGF, and fibronectin by means of ELISA. Reference test compounds were vitamin C (procollagen I), PMA (VEGF), and TGF-β (fibronectin).

[2] = tested on: PGE2; experiment: PGE2 release in stimulated NHEK (ELISA); assay type: cell-based, human; conditions: PMA 1 μg/ml, 100 μM
Experimental: (§3) NHEK were pre-incubated for 24 h with the test compounds. The medium was replaced with the NHEK culture medium containing the inflammatory inducers (PMA or Poly I:C) and incubated for another 24 hours. Positive and negative controls ran in parallel. At the endpoint the culture supernatants were quantified of secreted IL-8, PGE2 and TNF-α by means of ELISA.

[3] = tested on: normal human epidermal keratinocytes (NHEK); experiment: Cytotoxicity on NHEK monolayer cultures (MTT reduction assay and morphological observation); assay type: cell-based; conditions: for Viability (%): single values, listed as Hes-5-Rha
Experimental: To determine the cytotoxicity of flavonoid-5-O-α-L-rhamnosides tests were performed versus their aglycon derivatives in cell monolayer cultures. For this purpose concentrations ranging from 1 μM to 250 μM were chosen. The viability of normal human epidermal keratinocytes (NHEK) was twice evaluated by a MTT reduction assay and morphological observation with a microscope. NHEK were grown at 37° C. and 5% CO2 aeration in Keratinocyte-SFM medium supplemented with epidermal growth factor (EGF) at 0.25 ng/mL, pituitary extract (PE) at 25 μg/mL and gentamycin (25 μg/mL) for 24 h and were used at the 3rd passage. For cytotoxicity testing, pre-incubated NHEK were given fresh culture medium containing a specific concentration of test compound and incubated for 24 h. After a medium change at same test concentration cells were incubated a further 24 h until viability was determined. Test results are given in Table B2 and illustrated in FIG. 10.

[4] = tested on: fibronectin; experiment: Fibronectin synthesis in NHDF (ELISA); assay type: cell-based, human; conditions: 100 μM, 72 hours
Experimental: as §1, §2

[5] = tested on: TNF-α; experiment: TNF-α release in stimulated NHEK (ELISA); assay type: cell-based, human; conditions: poly(I:C)
Experimental: as §3

[6] = tested on: matrix metallopeptidase 1 (MMP-1); experiment: MMP-1 release in UVA-irradiated NHDF (ELISA); assay type: cell-based, human; conditions: 100 μM, 15 J/cm^2 UVA
Experimental: as §1
Human fibroblasts were cultured for 24 hours before the cells were pre-incubated with the test or reference compounds (dexamethasone) for another 24 hours. The medium was replaced by the irradiation medium (EBSS, CaCl2 0.264 g/L, MgClSO4 0.2 g/L) containing the test compounds) and cells were irradiated with UVA (15 J/cm^2). The irradiation medium was replaced by culture medium including again the test compounds incubated for 48 hours. After incubation the quantity of matrix metallopeptidase 1 (MMP-1) in the culture supernatant was measured using an ELISA kit.

[7] = tested on: IL-8; experiment: IL-8 release in stimulated NHEK (ELISA); assay type: cell-based, human; conditions: for inhibition at 100 µM: Homo sapiens, NHEK; for Cytokine [pg/mL] IL-8 Mean / IL-8 % stim. control / Cytokine [pg/mL] IL-8: 100 μM; for Cytokine [pg/mL] IL-8: single values
Experimental: as §3

COc1ccc(C2CC(=O)c3c(cc(O)cc3O[C@@H]3O[C@@H](C)[C@H](O)[C@@H](O)[C@H]3O)O2)cc1O (stereo partly drawn) [HESR1, Hesperetin-5-O-α-L-rhamnoside]
Mean VEGF [1]: 73 pg/mL
VEGF % Control [1]: 101%
VEGF % Stimulation [1]: 1%
VEGF ([1]; single values): 70 pg/mL and 76 pg/mL
inhibition at 100 µM ([2]; Homo sapiens, NHEK): 74%
Cytokine [pg/mL] PGE2 Mean [2]: 507 pg/mL
PGE2 % stim. control [2]: 32%
Cytokine [pg/mL] PGE2 ([2]; single values): 582 pg/mL and 431 pg/mL
Viability (%) Mean ([3]; 1 μM): 97%
Viability (%) ([3]; 1 μM): 86% and 108%
Viability (%) Mean ([3]; 2.5 μM): 100%
Viability (%) ([3]; 2.5 μM): 87% and 113%
Viability (%) Mean ([3]; 5 μM): 88%
Viability (%) ([3]; 5 μM): 81% and 95%
Viability (%) Mean ([3]; 10 μM): 95%
Viability (%) ([3]; 10 μM): 86% and 103%
Viability (%) Mean ([3]; 25 μM): 101%
Viability (%) ([3]; 25 μM): 89% and 112%
Viability (%) Mean ([3]; 50 μM): 87%
Viability (%) ([3]; 50 μM): 81% and 93%
Viability (%) Mean ([3]; 100 μM): 97%
Viability (%) ([3]; 100 μM): 86% and 108%
Viability (%) Mean ([3]; 250 μM): 96%
Viability (%) ([3]; 250 μM): 91% and 102%
Fibronectin % Control [4]: 96%
Fibronectin % Stimulation [4]: −4%
Fibronectin Mean [4]: 5853 ng/mL
Fibronectin ([4]; single values): 5843 ng/mL and 5864 ng/mL
inhibition at 100 µM ([5]; Homo sapiens, NHEK, read-out: TNFα Inhibition %): 26%
Cytokine [pg/mL] TNFα Mean ([5]; 100 μM): 423 pg/mL
TNFα % stim. control ([5]; 100 μM): 75%
Cytokine [pg/mL] TNFα ([5]; 100 μM, single values): 416 pg/mL and 429 pg/mL
MMP-1 % Irradiated control [6]: 116%
MMP-1 % Protection [6]: −25%
Mean MMP-1 [6]: 82.2 ng/mL
MMP-1 ([6]; single values): 87.0 ng/mL and 77.4 ng/mL
inhibition at 100 µM ([7]; PMA): 34%
inhibition at 100 µM ([7]; poly(I:C)): 24%
Cytokine [pg/mL] IL-8 Mean ([7]; PMA): 2843 pg/mL
IL-8 % stim. control ([7]; PMA): 98%
Cytokine [pg/mL] IL-8 ([7]; PMA): 3242 pg/mL and 2445 pg/mL
Cytokine [pg/mL] IL-8 Mean ([7]; poly(I:C)): 2793 pg/mL
IL-8 % stim. control ([7]; poly(I:C)): 76%
Cytokine [pg/mL] IL-8 ([7]; poly(I:C)): 2617 pg/mL and 2970 pg/mL
